Where “and” joins values, the source holds several entries; their conditions need not be identical. Equal entries are not always repeated.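 Briefly, cells in 96-well plates were exposed to five compound concentrations for 48 h, and endpoints were estimated by linear interpolation. Abbreviation: GI50, concentration required for 50% inhibition of growth. Definition used: TGI = concentration required for complete inhibition of growth.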
Columns and labels:
Experiment in all cases: NCI-60 cell line screen, 48 h
A498 renal = system: A498 renal
BT-549 breast = system: BT-549 breast
CAKI-1 renal = system: CAKI-1 renal
DU-145 prostate = system: DU-145 prostate
HCC-2998 colon = system: HCC-2998 colon
HCT-116 colon = system: HCT-116 colon
HOP-92 NSCLC = system: HOP-92 NSCLC
SK-MEL-28 melanoma = system: SK-MEL-28 melanoma
SW-620 colon = system: SW-620 colon
UO-31 renal = system: UO-31 renal

SMILES	TGI (A498 renal)	TGI (BT-549 breast)	TGI (CAKI-1 renal) [µM]	TGI (DU-145 prostate)	TGI (HCC-2998 colon)	TGI (HCT-116 colon)	TGI (HOP-92 NSCLC)	TGI (SK-MEL-28 melanoma) [µM]	TGI (SW-620 colon)	TGI (UO-31 renal)	GI50 (A498 renal)	GI50 (BT-549 breast) [µM]	GI50 (CAKI-1 renal)	GI50 (DU-145 prostate) [µM]	GI50 (HCC-2998 colon) [µM]	GI50 (HCT-116 colon) [µM]	GI50 (HOP-92 NSCLC)	GI50 (SK-MEL-28 melanoma) [µM]	GI50 (SW-620 colon) [µM]	GI50 (UO-31 renal) [µM]
CC1CCN(CC(=O)N2c3ccccc3Sc3cc4ccccc4cc32)CC1	> 100 µM	> 100 µM	> 100	> 100 µM	> 100 µM	> 100 µM	> 100 µM	> 100	> 100 µM	> 100 µM										
Cc1cc(N/N=C/c2nc(-c3ccc(Cl)cc3)oc2C)c2cc(Cl)ccc2n1	25.1 µM	21.1 µM	4.33	6.9 µM	7.32 µM	4.59 µM	16.6 µM	3.86	3.51 µM	25.2 µM	11.7 µM	8.61	2 µM	2.45	2.86	2.14	3.53 µM	1.99	1.56	12.6
N#C[C@@H]1C(n2ccc(N)nc2=O)O[C@H](CO)[C@H]1O (stereo not given in full)	> 100 µM	> 100 µM	> 100	> 100 µM	> 100 µM	> 100 µM	> 100 µM	> 100	> 100 µM	> 83.4 µM	> 100 µM	> 100	3.49 µM	5.02	> 100	2.66	7.66 µM	64.2	53.6	6.18
COc1cc(Cn2c(-c3nonc3N)nc3ccccc32)ccc1C	1.66 µM	49.4 µM	> 100	> 37.8 µM	> 100 µM	> 100 µM	30 µM	> 62.7	> 100 µM	> 100 µM	0.142 µM	0.463	0.477 µM	0.605	1.42	0.46	0.566 µM	2.91	0.334	0.58
CC(C)[C@H]1C(=O)N[C@@H](CCCN=C(N)N)C(=O)NCC(=O)N[C@@H](CC(=O)O)C(=O)N[C@H](Cc2ccccc2)C(=O)N1C	1.05 µM	3.13 µM	> 100	70.6 µM	> 100 µM	> 33.4 µM	2.47 µM	> 100	> 100 µM	> 100 µM	0.182 µM	1.6	> 28.7 µM	7.66	> 100	1.86	0.385 µM	31.6		> 73.2
CCOc1c(Cl)cc(CNC(C)C(O)c2ccccc2)cc1OC (stereo not given)	26.4 µM	> 100 µM	54.7	> 100 µM	32.7 µM	43.1 µM	48.5 µM	30.8	58.1 µM	89.6 µM	0.244 µM	41.1	15.1 µM	37.6	16.6	19.2	12.9 µM	15.3	22.8	18
NC(=O)c1ccc(C2C3=C(CCCC3=O)OC3=C2C(=O)c2ccccc2C3=O)cc1 (stereo not given)	2.69 µM	2.03 µM	3.67	1.59 µM	4.29 µM	0.76 µM	2.91 µM	2.87	1.72 µM	2.91 µM	1.36 µM	0.642	1.9 µM	0.465	2.06	0.26	0.855 µM	1.33	0.383	1.54
O=C1CC(=O)OC(c2ccc([N+](=O)[O-])cc2)O1	7.72 µM	3.87 µM	3.24	3.2 µM	3.18 µM	3.12 µM	3.71 µM	4.08	3.41 µM	3.55 µM	2.76 µM	2	1.44 µM	1.63	1.76	1.61	0.23 µM	1.93	1.68	1.64
CC(C)(C)NC(=O)[C@H]1C[C@H]2CCCC[C@H]2CN1C[C@@H](O)[C@H](Cc1ccccc1)NC(=O)[C@H](CC(N)=O)NC(=O)c1ccc2ccccc2n1	32.1 µM	> 66.1 µM	33.1	6.95 µM	26.8 µM	> 47.1 µM	20 µM	33.1	48.8 µM	29.9 µM	15.7 µM	11.2	16.4 µM	1.78	13.4	17	4.17 µM	16.9	20.3	15.5
C[C@]12CC[C@@H]3c4ccc(O)cc4C(O)C[C@H]3[C@@H]1CCC2=O (stereo not given in full)	> 100 µM	> 100 µM	> 100	> 100 µM	> 100 µM	> 100 µM	> 100 µM	> 100	> 100 µM	> 100 µM	76.2 µM	> 100	> 100 µM	> 100	84.2	> 100	53.8 µM	> 100	> 100	53.8
Cc1cc(=O)oc2cc(O)c(CN(C)CC(=O)O)cc12	> 100 µM	> 100 µM	> 100	> 100 µM	> 100 µM	> 100 µM	> 100 µM	> 100	> 100 µM	> 100 µM										
CSc1ccc(/C=C2\C=C(CC(=O)NCc3ccc(C(=O)c4ccccc4)cc3)c3cc(F)ccc32)cc1	0.902 µM	21.9 µM	8.23	0.877 µM	0.756 µM	2.76 µM	6 µM	19.8	> 100 µM	13 µM	0.0364 µM	1.43	0.0741 µM	0.0401	0.0544	0.0367	0.179 µM	0.0688	0.0431	0.36
CCN(CC)CCNc1n[n+]([O-])c2ccccc2[n+]1[O-]	9.39 µM and 9.85 µM	34.2 µM and 74.1 µM		48.4 µM and 47.9 µM	6.12 µM and 14.5 µM	26.6 µM and 31 µM	> 21.8 µM and 46.6 µM	> 100	82 µM and 55.9 µM	> 79.4 µM and 57.1 µM	5.47 µM and 2.54 µM		2.89 µM and 6.81 µM				2.28 µM and 7.45 µM			
COc1ccc(C2CC(n3nnnc3-c3ccccc3)=NN2)cc1 (stereo not given)	55.1 µM	37.6 µM	2.98	49.3 µM	17.2 µM	22.3 µM	42.6 µM	> 100	25.1 µM	11.7 µM	18.6 µM	8.89	0.38 µM	12.9	3.41	4.87	11.6 µM	13.3	2.82	1.39
COc1ccc(CN2c3ccccc3CCc3ccccc32)cc1F	> 100 µM	41.2 µM	> 100	> 100 µM	> 100 µM	> 100 µM	48 µM	> 100	> 100 µM	> 100 µM	0.339 µM	0.776	0.549 µM	0.481	8.9	0.413	0.587 µM	0.82	0.386	0.814
COc1cc2nc(-c3ccc(C(F)(F)F)cc3)cc(OCCCN3CCCCC3)c2cc1OC	5.16 µM	11.7 µM	5.05	16.5 µM	5.72 µM	11.6 µM	7.08 µM	2.95	13.3 µM	12.5 µM	1.85 µM	1.48	0.272 µM	1.84	1.28	0.429	0.678 µM	1.26	2.91	2
Cc1cc(-c2nnc3n2CCCCC3)c(C)n1-c1ccc(Cl)c(Cl)c1	28 µM	20.3 µM	> 100	> 100 µM	29.3 µM	28.7 µM	31.9 µM	23.2	50.9 µM	36.7 µM	14 µM	7.1	22.3 µM	27.6	14	12.8	11.9 µM	10.7	17.5	12.6
COC(=O)CCCCCN=Cc1c(O)c(O)c(C(C)C)c2cc(C)c(-c3c(C)cc4c(C(C)C)c(O)c(O)c(C=NCCCCCC(=O)OC)c4c3O)c(O)c12	> 32.5 µM	> 32.5 µM	> 32.5	21.1 µM	> 32.5 µM	> 32.5 µM	2.88 µM	> 32.5	> 32.5 µM	> 32.5 µM	2.74 µM	3	6.17 µM	1.78	2.15	1.23	0.797 µM	1.95	1.37	1.24
O=C1NC2(CN3CCC2CC3)C(=O)N1CN(Cc1ccccc1)c1ccccc1 (stereo not given)	> 100 µM	> 100 µM	> 100	> 100 µM	> 100 µM	> 100 µM	> 100 µM	> 100	> 100 µM	> 100 µM										
FCc1ncc(-c2ccc(C(F)(F)F)cc2)c(NC2CCCCCC2)n1	> 10 µM	> 10 µM	> 10	> 10 µM	> 10 µM	> 10 µM	> 10 µM	> 10	> 10 µM	> 10 µM	> 10 µM	> 10	> 10 µM	> 10	> 10	> 10	5.29 µM	> 10	> 10	> 10
COC(=O)CCC1=C(C)/C(=C/c2[nH]c(-c3ccc[nH]3)cc2OC)N=C1C	18.5 µM	5.45 µM	3.15	15.1 µM	6.73 µM	1.41 µM	0.571 µM	3.55	1.67 µM	2.92 µM	4.71 µM	0.493	0.346 µM	2.17	1.37	0.331	0.191 µM	0.869	0.333	0.556
CCN(CCNc1ccc(C)c2sc3ccccc3c(=O)c12)CC(C)(C)O	21.5 µM	36.6 µM	22.4	38.2 µM	27.3 µM	22.6 µM	20.5 µM	17.8	15.8 µM	24.3 µM	7.46 µM	15.3	5.35 µM	15.4	8.81	6.62	5.47 µM	6.16	4.63	7.34
c1nnc(NCNc2nncs2)s1	> 100 µM	> 100 µM	> 100	> 100 µM	84.2 µM	> 100 µM	> 100 µM	> 100	> 100 µM	> 100 µM										
O=C1c2ccccc2-n2c1nc1ccccc1c2=O	59.8 µM	45.4 µM	42.3	24 µM	> 90.4 µM	79.6 µM	> 100 µM	50.7	70.1 µM	42.9 µM										
C/C(=N\NC(N)=S)c1nc2ccc(Cl)cc2[nH]1	22.5 µM	14.3 µM	1.74	8.8 µM	16.4 µM	8.85 µM	39.1 µM	35.9	> 50 µM	3.27 µM	7.11 µM	3.57	0.287 µM	1.97	4.1	2.11	12 µM	5.7	2.96	0.3
CN[C@@H]1C[C@H]2O[C@@](C)([C@@H]1OC)n1c3ccccc3c3c4c(c5c6ccccc6n2c5c31)C(=O)N[C@@H]4O	0.0232 µM and 0.0257 µM	0.3 µM and 0.627 µM	0.0229	1.16 µM	0.3 µM and 2.69 µM	2.42 µM		2.31	0.3 µM and 1.88 µM	0.0645 µM	0.0053 µM	0.0193			0.0534		< 0.0205 µM		0.147	
O=C1CCCN1CC#CCN1CCCC1	> 100 µM	> 100 µM	> 100	> 100 µM	> 100 µM	> 100 µM	> 100 µM	> 100	> 100 µM	> 100 µM	> 100 µM	> 100	> 100 µM	> 100	> 100	> 100	> 100 µM	> 100	> 100	> 100

Reference: PubChem BioAssay (NCI)
